The text below walks through data of patent publication US6096512A, “Cloned DNA encoding a UDP-GalNAc: Polypeptide, N-acetylgalactosaminyltransferase” (Pharmacia & Upjohn Company, priority 1997, dated 2000).

What is called Km is the concentration of substrate that gives half-maximal velocity.

In series [1] the target is T1, bovine colostrum GalNAc-transferase (Bos taurus, UniProt Q07537).
T1 sequence (Q07537 41-559): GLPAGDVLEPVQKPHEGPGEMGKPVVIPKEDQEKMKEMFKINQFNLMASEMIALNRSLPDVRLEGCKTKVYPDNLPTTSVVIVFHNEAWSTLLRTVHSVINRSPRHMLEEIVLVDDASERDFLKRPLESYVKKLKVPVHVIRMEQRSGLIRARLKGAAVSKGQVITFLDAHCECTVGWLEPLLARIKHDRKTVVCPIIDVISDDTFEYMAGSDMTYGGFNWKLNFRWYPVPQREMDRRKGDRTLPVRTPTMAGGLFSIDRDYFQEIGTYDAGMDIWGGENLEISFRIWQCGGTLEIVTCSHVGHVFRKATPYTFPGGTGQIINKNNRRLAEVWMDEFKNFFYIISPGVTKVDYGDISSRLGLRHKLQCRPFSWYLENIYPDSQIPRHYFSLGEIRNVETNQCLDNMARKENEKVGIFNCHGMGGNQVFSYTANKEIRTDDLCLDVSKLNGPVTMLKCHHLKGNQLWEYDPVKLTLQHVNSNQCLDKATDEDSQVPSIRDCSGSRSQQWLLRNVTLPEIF
As to the kind of experiment: Comparison of different synthetic peptides as acceptors (Biogel P-2 separation). The format is biochemical. From the text: (§1) The t-Boc-amino acids and the PAM resin solid supports are supplied by ABI. The completed peptides are removed from the supporting resin, concurrently with the side chain-protecting groups, by a standard HF cleavage procedure using anisole as a cation scavenger (10% v/v). The crude peptides are purified by preparative reverse phase chromatography on a C18 Vydac column (2.5×30 cm) using a water/acetonitrile gradient, each phase containing 0.1% TFA.
The transfer of N-acetylgalactosamine to peptide acceptors is assayed by two different assays. […] For the determination of kinetic parameters the reaction mixture contains 50 mM Imidazole, pH 7.2, 10 mM MnCl2, 0.5% Triton X-100, 150 μM UDP-GalNAc, approximately 120,000 cpm of UDP-[1-^3 H]-GalNAc, varying concentrations of acceptor (see individual experiments) and approximately 5 mU of enzyme in a final volume of 40 μl; standard incubation time is 20 minutes. The reaction is terminated by placing the samples in a boiling water bath for 1.5 minutes. The reaction product (glycosylated peptide) is separated from unreacted UDP-GalNAc by chromatography on Dowex-2 columns (0.5 ml bed volume) equilibrated in water; the run-through fraction (2.5 ml) containing the glycosylated peptide is collected, supplemented with scintillation fluid and counted for radioactivity. For the determination of the low levels of transfer to serine, the assay conditions are as follows: 50 mM Imidazole, pH 7.2, 10 mM MnCl2, 0.5% Triton X-100, 150 μM UDP-GalNAc, approximately 260,000 cpm UDP-[^3 H]-GalNAc and 3.2 mM acceptor peptide (the concentration of RSPPP is 3.7 mM). […] Following incubation, the enzyme is inactivated by placing the samples on a boiling water bath for 1.5 minutes. The samples are then allowed to cool and the reaction products are separated from unreacted UDP-GalNAc and free GalNAc by chromatography on a Biogel P-2 column (1×50 cm) equilibrated in 7% isopropanol; thirty 1.3 ml fractions are collected.
Assays were done as described in Materials and Methods. The products
were separated by Biogel P-2 chromatography. Assay times were 20 […]

For series [2], the target named is T1, bovine colostrum GalNAc-transferase. As to the kind of experiment: Determination of kinetic parameters for acceptor peptides. The format is biochemical.
Description: as §1
The transfer of N-acetylgalactosamine to peptide acceptors is assayed by two different assays. […] For the determination of kinetic parameters the reaction mixture contains 50 mM Imidazole, pH 7.2, 10 mM MnCl2, 0.5% Triton X-100, 150 μM UDP-GalNAc, approximately 120,000 cpm of UDP-[1-^3 H]-GalNAc, varying concentrations of acceptor (see individual experiments) and approximately 5 mU of enzyme in a final volume of 40 μl; standard incubation time is 20 minutes. The reaction is terminated by placing the samples in a boiling water bath for 1.5 minutes. The reaction product (glycosylated peptide) is separated from unreacted UDP-GalNAc by chromatography on Dowex-2 columns (0.5 ml bed volume) equilibrated in water; the run-through fraction (2.5 ml) containing the glycosylated peptide is collected, supplemented with scintillation fluid and counted for radioactivity. […]

Series [3] has as its system GalNAcTs (cloned soluble GalNAc-transferase). As to the kind of experiment: Transfer of N-acetylgalactosamine to synthetic acceptor peptides by soluble GalNAc-transferase, kinetic parameters. The conditions noted are these: read-out: Km for UDP-GalNAc.
Series [4] addresses T1, bovine colostrum GalNAc-transferase. The experiment in a line: Transfer of N-acetylgalactosamine to protein acceptors by bovine colostrum GalNAc-transferase. The conditions noted are these: for acceptor activity in words: native or reduced and carboxymethylated. The format is biochemical. As to the method:
(§2) The standard assay for UDP-GalNAc:polypeptide, N-acetylgalactosaminyltransferase activity during purification contained the following components in a final volume of 80 μl: 50 mM Imidazole pH 7.2, 10 mM MnCl2, 0.5% Triton X-100, 15 μM UDP-GalNAc, UDP[1-^3 H-] GalNAc (27,000 cpm/assay), 0.15 mg/ml apomucin and varying amounts of enzyme (see individual experiments). The reaction mixture is incubated at 37° C. for 5-10 minutes (see individual experiments) and the reaction product is TCA precipitated and radioactivity measured as described. Assays for activity in lysates from Spodoptera frugiperda cell line 9 (hereinafter referred to as Sf9 cells) are carried out as described by Thomsen et al., (1990).
The above conclusions and the predictions of the specificity algorithm are validated experimentally by studying the ability of bovine colostrum GalNAc-transferase to transfer N-acetylgalactosamine to a variety of acceptors, both native proteins and synthetic acceptor peptides. The transfer of N-acetylgalactosamine to protein acceptors is assayed as described by Elhammer and Kornfeld, 1986, with minor modifications. The concentration of UDP-GalNAc is saturating in all assays; a Km of 8 μM is reported for bovine colostrum GalNAc-transferase (Elhammer and Kornfeld, 1986).
The transfer of N-acetylgalactosamine to protein acceptors was assayed
under standard conditions (see Material and Methods). The acceptor
concentration was 65 μM, the enzyme concentration approximately
65 mU/ml and assay time was 60 minutes. The transfer to both native and
reduced-carboxymethylated acceptors was assayed.

Series [5] has as its system GalNAc-transferase activity in Sf9 cells. The experiment in a line: Expression of baculovirus isolates of the GalNAc-transferase in Sf9 cells, GalNAcT activity. The format is cell-based, Spodoptera frugiperda. As to the method: as §2
The putative GalNAcT coding region, pCR1000-91B, is digested with SstII and HindIII (both enzymes cut only in pCR1000 sequences that flank the insert; FIG. 2C) and these sites are blunted using T4 DNA polymerase so that it can be cloned into a baculovirus expression vector. BamHI linkers are then ligated onto the blunted ends and the resulting sample is ligated into the BamHI site of the baculovirus expression vector pAC373 (Summers and Smith, 1986). The resulting isolates are screened for proper orientation of the GalNAcT open reading frame with respect to the baculovirus polyhedron promoter, to yield pAC373-GalNAcT. […]

Values joined by “and” are separate entries in the source; they are usually repeats but may differ in a detail not shown here. Equal values may be shown once. Residues, ends and D or L forms follow the SMILES beside them.

On to `N=C(N)NCCC[C@H](N)C(=O)N[C@@H](CO)C(=O)N1CCC[C@H]1C(=O)N1CCC[C@H]1C(=O)N1CCC[C@H]1C(=O)O` [RSPPP, Arg-Ser-Pro-Pro-Pro] (H-RSPPP-OH), for which, in series [1] (RSPPP vs PPAdSSdSAPG), the “slower glycosylation than PPAdSSdSAPG” value is “three times slower than PPAdSSdSAPG”. Further, the Relative rate in series [1] ([…]) is 1/751. Moreover, the Product formed in series [1] (assay time 8 hours, 3.2 mM acceptor (RSPPP 3.7 mM)) is given as 0.67 nmol/min/mg.
On to `C[C@@H](O)[C@H](NC(=O)[C@@H](N)CCCNC(=N)N)C(=O)N1CCC[C@H]1C(=O)N1CCC[C@H]1C(=O)N1CCC[C@H]1C(=O)O` [RTPPP, Arg-Thr-Pro-Pro-Pro] (H-RTPPP-OH), for which the Km in series [2] (20 minutes, mean, S.E. (n = 3)) was 3300 ± 600 µM. Moreover, the “Vmax /Km” value in series [2] (from Km and Vmax) is 183 M⁻¹ s⁻¹.
Consider `CC(=O)N[C@H]1[C@@H](OP(=O)(O)OP(=O)(O)OC[C@H]2O[C@@H](n3ccc(=O)[nH]c3=O)[C@H](O)[C@@H]2O)O[C@H](CO)[C@H](O)[C@@H]1O` [UDP-GalNAc, UDP-N-acetylgalactosamine], for which the Km in series [3] was ~1.7 µM and 1.7 µM.
Regarding “Bovine cytochrome C: contains one Ser and eight Thr residues but no predicted potential sites [reference compound]”, in series [4] (acceptor 65 μM, enzyme approximately 65 mU/ml, 60 minutes, native), the “Product formed, native acceptor” value is on record as under 0.1 nmol/min/mg. Besides, the “Product formed, reduced and carboxymethylated acceptor” value in series [4] (acceptor 65 μM, enzyme approximately 65 mU/ml, 60 minutes, myelin basic protein was not reduced and carboxymethylated) is listed as under 0.1 nmol/min/mg. Further, the “acceptor activity in words” value was “is not an acceptor for the enzyme” in series [4] (listed as bovine cytochrome C) and “completely inactive as an acceptor” in series [4] (listed as cytochrome C).
As for “CMW Pol-1: baculovirus containing an unrelated gene, human cytomegalovirus DNA polymerase gene [reference compound]”, in series [5] (Sf9 cell lysates, 48 hours post infection), the Specific activity was determined as 0.13 Units/mg protein. Further, the Relative rate in series [5] (relative to uninfected cells) is reported as 0.8.
